“Also recorded” adds a separate entry of the source. Where two headings read alike, the source gives them in different places.
What was measured:
[1] = cited from earlier work; for breath AMS and acetone production: after consumption; for time of disappearance from breath: after garlic consumption
[2] = cited from earlier work; for metabolism in blood: disappearing in the process; for Reaction in Blood Half-life: in vitro
[3] = in vitro, in the presence of cysteine; cited from earlier work
[4] = after fresh garlic (e.g. 25 g) or pure allicin (60 mg); cited from earlier work
plaque = assay: Diluted allyl mercaptan poured over the toothbrush bristles (Applicant); assay type: in vivo; conditions: 1/200 in distilled water on toothbrush, a week of use
Text: Because allyl mercaptan and propyl mercaptan are water soluble, it is easier to experiment with them than with diallyl disulfide or dipropyl disulfide (which are an oils).

leukemia cell cultures = conditions: co-administered to reduce glutathione; cited from earlier work
13 types of bacteria = conditions: cited from earlier work
[5] = system: pro-inflammatory cytokines (e.g. IL-1, TNF-alpha and IL-10); conditions: cited from earlier work
[6] = system: cytochrome P-450 enzymes (e.g. CYP2E1) and flavin-containing monooxygenases; conditions: cited from earlier work
plaque, mouth sores = assay: Evaluation of the antimicrobial toothpaste by Applicant and evaluators; assay type: in vivo; conditions: as active ingredient of experimental toothpastes
Method: I decided to next try mixing it with the toothpaste that I normally use by squeezing out the contents of a tube of Arm and Hammer Dental Care Toothpaste into a bowl, mixing in 10 ml (2 teaspoons) of 1/200 diluted allyl mercaptan, and then returning the toothpaste to the tube. […] Mixing with a conventional toothpaste provides an adequate carrier for the allium related compound. More generally, of course, any orally acceptable carrier suitable for application to the teeth may be used. […] This includes the carriers used in commercially available toothpastes, tooth powders, or other dentifrice products.
The resulting toothpaste has no significant “garlic” smell or taste. It left the mouth feeling very clean, so clean that unwaxed dental floss “squeaks” when slid up and down the side of each tooth.
Several friends and acquaintances were willing to try the toothpaste and provide feedback. Under a “Nondisclosure and Produce Evaluation Agreement” I supplied them with free samples to evaluate. The agreement specified that the samples are not for sale, that the inventive aspects of the samples are confidential, and that the samples have no warranty.
A commercial version of the toothpaste (using onion oil as the active ingredient) is now being manufactured under license by Viola Vitalis corporation of Dhaka, Bangladesh (a company that is partially owned by the applicant).

[7] = system: Cu2^+ induced LDL oxidation; conditions: cited from earlier work
NFkB = conditions: macrophages, cited from earlier work
[8] = system: total glutathione level of cells; conditions: in vitro administration of SAMC; cited from earlier work
acetaminophen poisoning = conditions: mice, cited from earlier work
[9] = during the first hour after consumption; cited from earlier work
trypsin enzyme inhibitor = conditions: cysteine 2% by weight, soy flour heated at 65 degrees C. for 1 hour; cited from earlier work
[10] = cited from earlier work
nematodes = conditions: cited from earlier work
E-coli O157:H7 = conditions: cited from earlier work
[11] = target: NFkB signal transduction proteins p50 and P65 (Homo sapiens, UniProt P19838+Q04206); conditions: measured with a nitric oxide probe; cited from earlier work
[12] = without nitrosothiol formation; cited from earlier work
glutathione = conditions: daily dosage of 1000 mg, multiple myeloma patients; cited from earlier work
liver glutathione level = conditions: cited from earlier work

Compound: C=CCSSC=CC[S+]([O-])CC=C (mixture of isomers) [ajoene]
- breath AMS and acetone production [1]: produce both breath AMS and acetone
- metabolism in blood [2]: metabolize directly in blood to allyl mercaptan

Compound: C=CCSC [AMS, allyl methyl sulfide]
- time of disappearance from breath [1]: ~20 h

Compound: C=CCS[S+]([O-])CC=C (centres unmarked) [Allicin, DiAllylThioSulfinate]
- Reaction with Cysteine Half-life [3]: <1 min
- Reaction in Blood Half-life [2]: <1 min
- time for metabolism to allyl mercaptan ([2]; red blood cells exposed to allicin): less than one minute
- detectability in blood, urine, or stool [4]: undetectable

Compound: C=CCS [AllylSH, AllylThiol]
- time of disappearance from breath [1]: ≤ 1 h
- plaque (plaque): reduction in plaque
- Reaction with Cysteine Half-life [3]: 80 min

Compound: CCCCS(=N)(=O)CCC(N)C(=O)O (centres unmarked) [BSO, buthionine sulfoximine]
- cytotoxicity of chemotherapeutic arsenicals (leukemia cell cultures): increase the cytotoxicity

Compound: O=C(N[C@H](CO)[C@H](O)c1ccc([N+](=O)[O-])cc1)C(Cl)Cl [Chloramphenicol]
- average zone of inhibition (13 types of bacteria): 20 mm
- species inhibited (13 types of bacteria): 12/13

Compound: C=CCSSCC=C [DADS, Diallyl Disulfide]
- breath AMS and acetone production [1]: produce both breath AMS and acetone
- expression of pro-inflammatory cytokines [5]: inhibit the expression
- activity of the enzymes producing allicin from DADS [6]: up to 121 pmol/min/pmol CYP2D6
- conversion of DADS to allicin ([6]; in 30 minutes): approximately 30%
- Reaction with Cysteine Half-life [3]: 45 min
- metabolism in blood [2]: metabolize directly in blood to allyl mercaptan
- Reaction in Blood Half-life [2]: 60 min

Compound: C=CCSCC=C [DAS]
- breath AMS and acetone production [1]: only produces breath acetone

Compound: CCCSSCCC [DPDS, di-n-propyl disulfide]
- performance relative to the allyl mercaptan toothpaste (plaque, mouth sores): performed similarly
- expression of pro-inflammatory cytokines [5]: inhibit the expression

Compound: C=CCSC[C@H](NC(C)=O)C(=O)O [N-acetyl-S-allylcysteine]
- effect on Cu2^+ induced LDL oxidation [7]: significantly reduce

Compound: N[C@@H](CSN=O)C(=O)O [S-Nitrosocysteine]
- donor concentration that nearly completely inhibits the activation of NFkB (NFkB; nitric oxide donor): 1 micro mole

Compound: C=CCSC[C@H](N)C(=O)O [S-allylcysteine]
- breath AMS and acetone production [1]: produces no breath AMS or acetone
- effect on Cu2^+ induced LDL oxidation [7]: significantly reduce

Compound: C=CCSSC[C@H](N)C(=O)O [SAMC, S-AllylMercaptoCysteine]
- total glutathione level of cells [8]: significantly increase; also recorded: significant increases the total glutathione level
- protection from acetaminophen poisoning, pretreatment (acetaminophen poisoning; pretreatment): protect mice from acetaminophen poisoning
- protection from acetaminophen, post treatment (acetaminophen poisoning; single dose 200 mg/kg shortly after exposure): protective
- breath AMS and acetone production [1]: produce both breath AMS and acetone
- effect on Cu2^+ induced LDL oxidation [7]: significantly reduce
- metabolism in blood [2]: metabolize directly in blood to allyl mercaptan
- Reaction in Blood Half-life [2]: 3 min

Compound: [AsH3] [arsenic]
- fraction excreted directly from the liver to the bile [9]: ~40%

Compound: N[C@@H](CS)C(=O)O [cysteine, Cysteine]
- deactivation of the trypsin enzyme inhibitor (trypsin enzyme inhibitor): over 90%
- pKa [10]: approximately 8.5

Compound: C=CCSSSCC=C [diallyl trisulfide]
- breath AMS and acetone production [1]: produce both breath AMS and acetone
- metabolism in blood [2]: metabolize directly in blood to allyl mercaptan

Compound: CCCS[S+]([O-])CCC (centres unmarked) [dipropyl thiosulfinate, Dipropyl Thiosulfinate]
- nematicidal activity ranking (nematodes): most effective compound found

Compound: C=CCS[S+](C)[O-] (centres unmarked) [methyl allyl thiosulfinate]
- effectiveness against E-coli O157:H7 (E-coli O157:H7): effective

Compound: CS[S+](C)[O-] (centres unmarked) [methyl methane thiosulfinate, Methyl methanethiosulfinate]
- effectiveness against E-coli O157:H7 (E-coli O157:H7): effective

Compound: [N]=O [nitric oxide]
- concentration that nearly completely inhibits the activation of NFkB (NFkB): less than 1 micro-mole
- concentration that inhibited DNA binding activity of p50 and P65 [11]: 20-100 nano mole
- half life in circulation [12]: about 5 seconds

Compound: O=C1O[C@H]([C@@H](O)CO)C(O)=C1O [vitamin C, ascorbic acid]
- mean percentage decrease of glutathione (glutathione): 60%
- cytotoxicity of chemotherapeutic arsenicals (leukemia cell cultures): increase the cytotoxicity

Compound: S-allylcysteine sulfoxide [alliin]
- effect on Cu2^+ induced LDL oxidation [7]: significantly reduce

Compound: sodium arsenate
- liver glutathione level (liver glutathione level; protein deficient (6%) rats, unexposed controls 74): 134 micrograms per gram
- liver glutathione level (liver glutathione level; well fed rats (18% protein), unexposed controls 88): 123 micrograms per gram
